Tested on: rat primary hippocampal neurons
Test: Neurite outgrowth assay in primary hippocampal neurons
Type: cell-based
Settings: 48 hours, FIG. 2
Experimental: The hippocampi of gestational day 18 rat embryos were dissected out, incubated in trypsin (0.08%, 30 min at 37° C.) and dissociated mechanically (Skaper et al., 19990). Hippocampal cells were resuspended in neurobasal medium supplemented with B27, anti-oxidants, 1 mM glutamine, 25 μM glutamate, 1 mM pyruvate, +/−Compound 1 (10 nM-5 μM) or vehicle (DMSO) control.
For outgrowth assays, cells were plated at a density of 3000 cells/well into 96 well dishes that had previously been coated with poly-D-lysine followed by 10% FCS. For RNA isolation, cells were plated at 1×10^6 cells/well into a 35 mm tissue culture dish that had previously been coated with poly-D-lysine followed by 10% FCS.
Compound (I) was solubilised in DMSO and added to culture medium at time of cell plating at a dilution of 1:1000. Vehicle only (1:1000) was added to culture medium of untreated controls. […] Assays were quantified using a KS300 image analysis system (Imaging Associates, UK). For each cell measured, the length from the edge of the cell to the end of the longest neurite was measured for 100 cells/well for each treatment in triplicate. […] Results are expressed as a percentage of the length of neurites of cells treated with vehicle alone.
# Compound (I) at 0.01 and 0.05 μM has been analysed in one experiment only (n=3)

SMILES: CN(CCOc1ccc(CC2SC(=O)NC2=O)cc1)c1ccccn1 (centres unmarked) [Compound (I), 5-(4-[2-(N-methyl-N-(2-pyridyl)amino)ethoxy]benzyl)-2,4-thiazolidinedione]
- neurite outgrowth (effect in words) (10 nM-5 μM added at time of cell plating): increases neurite outgrowth in rat primary hippocampal neurons in a dose dependant manner
- increase of neurite outgrowth over untreated controls (Compound at 100 nM, length of longest neurite relative to cells treated with vehicle (DMSO) alone): approx. 50%

Reference: patent US20070238757A1, “NOVEL TREATMENT” (SmithKline Beecham p.l.c., priority 2000, published 2007)
